Assay results taken from PubChem BioAssay (NCI).
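Five concentrations, 48 hours, 96-well plates. At the TGI there is no net growth.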

Assays:
Assay in all cases: NCI anticancer screen, dose series, 48 h
[1] = tested on: 786-0 renal
[2] = tested on: A549 NSCLC
[3] = tested on: ACHN renal
[4] = tested on: CAKI-1 renal
[5] = tested on: CCRF-CEM leukemia
[6] = tested on: COLO 205 colon
[7] = tested on: DLD-1 colon
[8] = tested on: DMS 114 small cell lung
[9] = tested on: DMS 273 small cell lung
[10] = tested on: EKVX NSCLC
[11] = tested on: HCC-2998 colon
[12] = tested on: HCT-116 colon
[13] = tested on: HCT-15 colon
[14] = tested on: HL-60(TB) leukemia
[15] = tested on: HOP-62 NSCLC
[16] = tested on: HOP-92 NSCLC
[17] = tested on: HT29 colon
[18] = tested on: IGROV1 ovarian
[19] = tested on: K-562 leukemia
[20] = tested on: KM12 colon
[21] = tested on: KM20L2 colon
[22] = tested on: LOX IMVI melanoma
[23] = tested on: LXFL 529 NSCLC
[24] = tested on: M14 melanoma
[25] = tested on: M19-MEL melanoma
[26] = tested on: MALME-3M melanoma
[27] = tested on: MOLT-4 leukemia
[28] = tested on: NCI-H226 lung
[29] = tested on: NCI-H23 lung
[30] = tested on: NCI-H460 lung
[31] = tested on: NCI-H522 lung
[32] = tested on: OVCAR-3 ovarian
[33] = tested on: OVCAR-5 ovarian
[34] = tested on: OVCAR-8 ovarian
[35] = tested on: RPMI-8226 leukemia
[36] = tested on: RXF 393 renal
[37] = tested on: RXF-631 renal
[38] = tested on: SF-268 CNS
[39] = tested on: SF-295 CNS
[40] = tested on: SF-539 CNS
[41] = tested on: SK-MEL-2 melanoma
[42] = tested on: SK-OV-3 ovarian
[43] = tested on: SN12C renal
[44] = tested on: SNB-19 CNS
[45] = tested on: SNB-75 CNS
[46] = tested on: SNB-78 CNS
[47] = tested on: SR leukemia
[48] = tested on: SW-620 colon
[49] = tested on: U251 CNS
[50] = tested on: UACC-257 melanoma
[51] = tested on: UACC-62 melanoma
[52] = tested on: UO-31 renal
[53] = tested on: XF 498 CNS
[54] = tested on: A498 renal
[55] = tested on: OVCAR-4 ovarian
[56] = tested on: SK-MEL-28 melanoma
[57] = tested on: SK-MEL-5 melanoma
[58] = tested on: TK-10 renal

O=c1cccccc1NCCCCCCCCNc1cccccc1=O
TGI [1]: > 100 µM
TGI [2]: > 100 µM
TGI [3]: > 100 µM
TGI [4]: > 100 µM
TGI [5]: > 100 µM
TGI [6]: > 100 µM
TGI [7]: > 100 µM
TGI [8]: > 100 µM
TGI [9]: > 100 µM
TGI [10]: > 100 µM
TGI [11]: > 100 µM
TGI [12]: > 100 µM
TGI [13]: > 100 µM
TGI [14]: > 100 µM
TGI [15]: > 100 µM
TGI [16]: 87.3 µM
TGI [17]: > 100 µM
TGI [18]: > 100 µM
TGI [19]: > 100 µM
TGI [20]: > 100 µM
TGI [21]: > 100 µM
TGI [22]: > 100 µM
TGI [23]: > 100 µM
TGI [24]: > 100 µM
TGI [25]: > 100 µM
TGI [26]: > 100 µM
TGI [27]: > 100 µM
TGI [28]: > 100 µM
TGI [29]: > 100 µM
TGI [30]: > 100 µM
TGI [31]: > 100 µM
TGI [32]: > 100 µM
TGI [33]: > 100 µM
TGI [34]: > 100 µM
TGI [35]: > 100 µM
TGI [36]: > 100 µM
TGI [37]: > 100 µM
TGI [38]: > 100 µM
TGI [39]: > 100 µM
TGI [40]: > 100 µM
TGI [41]: > 100 µM
TGI [42]: > 100 µM
TGI [43]: > 100 µM
TGI [44]: > 100 µM
TGI [45]: > 100 µM
TGI [46]: > 100 µM
TGI [47]: > 100 µM
TGI [48]: > 100 µM
TGI [49]: > 100 µM
TGI [50]: > 100 µM
TGI [51]: > 100 µM
TGI [52]: > 100 µM
TGI [53]: > 100 µM

OC1CC1Sc1ccccc1 (stereo not drawn)
TGI [1]: 42.8 µM
TGI [54]: > 100 µM
TGI [2]: > 100 µM
TGI [3]: > 100 µM
TGI [4]: > 100 µM
TGI [5]: > 100 µM
TGI [6]: > 100 µM
TGI [7]: > 100 µM
TGI [8]: 74.4 µM
TGI [9]: > 100 µM
TGI [10]: > 100 µM
TGI [11]: > 100 µM
TGI [12]: 62.9 µM
TGI [13]: > 100 µM
TGI [14]: 39.6 µM
TGI [15]: > 100 µM
TGI [16]: > 100 µM
TGI [17]: > 100 µM
TGI [18]: 60.1 µM
TGI [19]: > 100 µM
TGI [20]: > 100 µM
TGI [22]: 71.1 µM
TGI [23]: 89.2 µM
TGI [24]: > 100 µM
TGI [25]: > 100 µM
TGI [26]: > 100 µM
TGI [27]: 91.7 µM
TGI [29]: > 100 µM
TGI [30]: > 100 µM
TGI [31]: 39.8 µM
TGI [32]: 78.7 µM
TGI [55]: > 100 µM
TGI [33]: > 100 µM
TGI [34]: 92.7 µM
TGI [35]: 83.4 µM
TGI [36]: > 100 µM
TGI [37]: > 100 µM
TGI [38]: 78.1 µM
TGI [39]: 69.4 µM
TGI [40]: 46.4 µM
TGI [41]: > 100 µM
TGI [56]: 57.3 µM
TGI [57]: > 100 µM
TGI [42]: > 100 µM
TGI [43]: 61.7 µM
TGI [44]: > 100 µM
TGI [45]: > 100 µM
TGI [46]: > 100 µM
TGI [48]: 78.4 µM
TGI [58]: > 100 µM
TGI [49]: > 100 µM
TGI [50]: > 100 µM
TGI [51]: > 100 µM
TGI [52]: 33.6 µM
TGI [53]: > 100 µM
